Results published in patent US11058738B2, “Herbal preparation for accelerating wounds and skin inflammations healing, especially for treatment of herpes and acne, and its application” (WYŻSZA SZKOŁA MEDYCZNA W BIAŁYMSTOKU, priority 2015, dated 2021).

What was measured:
[1] = tested on: open wounds; experiment: Epithelialization and wound healing in mammals with open wounds; format: in vivo
Procedure: A following semi-solid preparation was prepared for the study which was obtained by mixing together: • 40% w/w Melittis melissophyllum L. from the whole plant, • 20% w/w of 96% ethyl alcohol, • 40% w/w Vaseline album—a hydrocarbon based substance used in lipophilic ointments.
The substance, etched by ethyl alcohol, is dissolved with help of heat in a smooth ointment medium for better dispersion ofbiologically active substances contained in the test extract. It could also be mixed in a cold lipophilic medium. It is important that the substance has been dissolved in the medium at the concentration below saturation.
In the study three groups of mammals with open wounds were involved:
I control group—no treatment was applied to the wound, even antiseptic one.
II group—a typical antiseptic agent was used, chlorhexidine, in accordance with a standard protocol regarding a treatment of an infected wound.
III group—the herbal preparation with a Melittis melissophyllum L. extract was used.
The herbal preparation applied in a treatment of open wounds. It was used in a similar way as described in Example I. The experiment confirmed that the herbal preparation based on Melittis melissophyllum L. definitely accelerates repair processes during the wound healing.

[2] = tested on: neutrophil white blood cells from the wound surface; experiment: Phagocytic activity of white blood cells (latex particles) from the healing wound surface; format: in vivo, mammals
Procedure: Phagocytic activity of white blood cells was assessed using phagocytic index (PI)—a percentage of phagocytes containing absorbed latex particles, and an amount of phagocytes (IF)—the average number of particles per phagocyte.
The established phagocytic activity of neutrophil white blood cells from the wound surface in different periods of the wound healing, i.e. an increase in phagocytic index and number of phagocytes due to presence of the Melittis melissophyllum L. extract, is shown in Table 2. It was found for the first time that the Melittis melissophyllum L. extract has a high therapeutic activity during a wound healing period in all stages of the wound healing, accelerating the wound repair process and cells proliferation, therefore ensuring the complete wound healing much earlier.

In the case of `[H]/N=C(\N/C(=N/[H])NCCCCCCNC(=N)NC(=N)Nc1ccc(Cl)cc1)Nc1ccc(Cl)cc1` [Chlorhexidine, chlorhexidine], the “complete epithelialization of the wound surface” value [1] is reported as 12-th or 13-th, the Beginning epitelialization ([1]; topical) is reported as 3.9 ± 0.4 24-hours and the “Beginning of rejection of the crust” value ([1]; topical) is reported as 7.6 ± 0.5 24-hours. For the same compound, the Complete wound healing ([1]; topical) was 11.25 ± 0.19 24-hours, the Full crust rejection ([1]; topical) was 10.5 ± 0.3 24-hours and the “IF (amount of phagocytes, average number of particles per 1 phagocyte)” value ([2]; 3 day after granulation) was 10.0 ± 2.5. For the same compound, the “PI (phagocytic index, percentage of phagocytes containing latex particles)” value ([2]; 3 day after granulation) was 61.60 ± 9.49%, the “IF (amount of phagocytes, average number of particles per 1 phagocyte)” value ([2]; 5 day after granulation) was 14.0 ± 3.0 and the “PI (phagocytic index, percentage of phagocytes containing latex particles)” value ([2]; 5 day after granulation) was 59.01 ± 4.58%. For the same compound, the “IF (amount of phagocytes, average number of particles per 1 phagocyte)” value ([2]; 7 day after granulation) was 11.0 ± 3.0 and the “PI (phagocytic index, percentage of phagocytes containing latex particles)” value ([2]; 7 day after granulation) was 48.20 ± 5.51%.
